Measured values as given in PMC11979685, “Synthesis of Derivatives of the Antibiotic Albicidin: The N‐Terminal Fragment as Key to Control Potency and Resistance Mediated by the Binding Protein AlbA” (Chemistry (Weinheim an Der Bergstrasse, Germany), 2025).
≈ marks a conversion by molar mass, not a printed value.

How the values were obtained:
bacterial DNA gyrase = target: bacterial DNA gyrase; set-up: method as in PMID 17074789; conditions: read-out: half maximum inhibitory concentration (IC50), DNA gyrase; cited from earlier work
Bacillus subtilis DSM 10 = test: MIC determination (broth microdilution); format: cell-based; conditions: DSM10, read-out: MIC B. sub.
Protocol: (§1) After completing the syntheses, the antibacterial activity of A‐variations 4–24 was assessed by determination of MIC values against a basic set of gram‐negative and gram‐positive bacteria (Table 1). The monocyclic derivatives 4–8 featuring a cyano‐, trifluoromethyl‐, methoxy‐ and fluoro‐ substituent in para‐position were very active against the gram–negative E. coli and S. typhimurium strains with MIC values in the same range as 3rd Gen albicidin 3 or ciprofloxacin which is the gold standard for gyrase inhibitors. […] These findings are in agreement with previous studies showing good activities for cyano, trifluoromethyl, methoxy and fluoro substituents in the para‐position of different aromatic rings in the building block A.[12, 13] The activity of the monocyclic derivatives 4–8 against the gram‐positive strains B. subtilis and M. luteus were similar but slightly less pronounced compared to the lead structure 3.
(§2) 1.1 Determination of Minimal Inhibitory Concentrations (MIC)
(§3) Minimal inhibitory concentration (MIC) against selected bacterial strains values were determined according to the ninth edition of the Approved Standard M07-A9.[1] 20 μL of cryo stocks of bacterial strains were suspended in 20 mL LB medium (Lysogeny broth: 10 g/L peptone, 5 g/L yeast extract, 5 g/L NaCl). Following incubation overnight at 37°C, 200 rpm, the test inoculum was adjusted by 0.5 McFarland Standard in cation adjusted Mueller-Hinton broth (BBLTM Mueller-Hinton Broth II, Becton, Dickinson and Company, New Jersey, USA) to approximately 1x10^6 CFU mL-1. 95 μL of the bacterial inoculum were applied per well of a 96-well plate. Albicidin and albicidin derivatives 3−24 were dissolved in DMSO (100%) to an initial concentration of 2560 μg/mL and serially diluted in DMSO (100%). Initial solution and serial dilutions of Ciprofloxacin were prepared in 0.1 N HCL, respectively. 5 μL of each antibiotic dilution were added to the microdilution tray to reach albicidin concentrations of 128 μg/mL to 0.016 μg/mL per well. One row of each well plate served as a growth control without antibiotic substances and another row of the microdilution tray served as sterility control (only MHB II - media). The antimicrobial effect of the solvent (DMSO) was tested by adding 5 μL DMSO to several wells. Purity check and cell titer control were performed according to International S tandard M07-A9 on Mueller-Hinton II Agar (Mueller Hinton II Broth, 15 g/L agar-agar). Both microdilution trays and agar plates were incubated at 30−37°C for 16 h and subsequently analyzed for growth inhibition by naked eye. The following primary panel of microorganisms were purchased from German Collection of Microorganisms and Cell Cultures (DSMZ):
(§4) Escherichia coli DSM 1116
(§5) Micrococcus luteus DSM 1790
(§6) Mycobacterium phlei DSM 750
(§7) Salmonella typhimurium TA100 was kindly provided by Prof. Dr. Vera Meyer (Technische Universität Berlin). […]
(§8) was purchased as part of the single gene knockout library of E. coli K12 BW25113 (Keio collection) from Horizon Discovery group plc (Cambridge, UK).

E. coli BW25113 = test: MIC determination (broth microdilution); format: cell-based; conditions: Escherichia coli, BW25113; read-out: MIC E. coli BW25113
Protocol: as §1, §2, §3, §4, §5, §6, §7, §8

E. coli DSM1116 = test: MIC determination (broth microdilution); format: cell-based; conditions: Escherichia coli, DSM1116; read-out: MIC E. coli DSM1116
Protocol: as §1, §2, §3, §4, §5, §6, §7, §8

[1] = system: Micrococcus luteus DSM 1790; test: MIC determination (broth microdilution); format: cell-based; conditions: DSM1790, read-out: MIC M. luteus
Protocol: as §1, §2, §3, §4, §5, §6, §7, §8

[2] = system: Mycobacterium phlei DSM 750; test: MIC determination (broth microdilution); format: cell-based; conditions: Mycolicibacterium phlei, DSM750; read-out: MIC M. phlei
Protocol: as §1, §2, §3, §4, §5, §6, §7, §8

[3] = system: Salmonella typhimurium TA100; test: MIC determination (broth microdilution); format: cell-based; conditions: Salmonella enterica, read-out: MIC S. typh.
Protocol: as §1, §2, §3, §4, §5, §6, §7, §8

E. coli = test: MIC against E. coli in presence of 50 % human serum; format: cell-based; conditions: Escherichia coli; E. coli in presence of 50 % human serum; read-out: MICEc 50%HS
E. coli DNA gyrase = E. coli DNA gyrase (Escherichia coli, UniProt P0AES4); test: E. coli gyrase DNA cleavage assay; format: biochemical; set-up: key to Gyrase inhibition strong+ / weak −: + strong inhibition; − weak inhibition in comparison to compound 16; conditions: for Gyrase inhibition strong+ / weak −: qualitative DNA cleavage assay at 1 μM and 10 μM, in comparison to compound 16
E. coli DNA gyrase, sequence (P0AES4 whole entry): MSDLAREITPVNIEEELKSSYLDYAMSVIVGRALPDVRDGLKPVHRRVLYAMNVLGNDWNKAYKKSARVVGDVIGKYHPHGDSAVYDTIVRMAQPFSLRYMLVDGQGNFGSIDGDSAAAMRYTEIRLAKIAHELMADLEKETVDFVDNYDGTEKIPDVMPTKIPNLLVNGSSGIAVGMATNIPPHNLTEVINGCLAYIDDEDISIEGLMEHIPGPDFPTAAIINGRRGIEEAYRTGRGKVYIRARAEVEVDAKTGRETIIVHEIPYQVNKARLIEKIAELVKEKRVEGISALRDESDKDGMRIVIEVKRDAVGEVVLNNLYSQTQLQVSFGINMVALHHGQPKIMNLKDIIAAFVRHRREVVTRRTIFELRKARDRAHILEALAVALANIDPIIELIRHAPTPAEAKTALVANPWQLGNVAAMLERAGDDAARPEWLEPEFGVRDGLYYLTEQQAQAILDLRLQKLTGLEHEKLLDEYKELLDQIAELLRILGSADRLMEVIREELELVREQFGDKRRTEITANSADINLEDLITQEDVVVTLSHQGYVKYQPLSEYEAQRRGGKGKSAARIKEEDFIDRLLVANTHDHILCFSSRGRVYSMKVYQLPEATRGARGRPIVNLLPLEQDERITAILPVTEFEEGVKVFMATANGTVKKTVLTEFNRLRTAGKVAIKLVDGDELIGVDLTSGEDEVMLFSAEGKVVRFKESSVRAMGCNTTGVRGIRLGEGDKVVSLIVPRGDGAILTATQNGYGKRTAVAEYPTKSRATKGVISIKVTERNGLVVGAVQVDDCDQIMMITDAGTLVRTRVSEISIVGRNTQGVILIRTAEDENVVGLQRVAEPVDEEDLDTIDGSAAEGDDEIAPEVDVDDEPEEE
Protocol: The target activity of the synthesized derivatives was investigated using a DNA cleavage assay with purified and enzymatically active E. coli DNA gyrase[8] (see SI). In this assay, albicidin‐stabilized complexes of gyrase and plasmid DNA are trapped, and subsequently denatured and deproteinated to reveal DNA linearized by gyrase. […] For the best performing compounds, which were able to fully stabilize the cleavage complex at a concentration of 1 μM, the concentrations at half‐maximum cleavage (CC50) were determined (Figure 3).
1.2 Escherichia coli Gyrase Cleavage Inhibition Assay
E. coli gyrase cleavage assays were executed by setting up a master mix including 0.25 µg relaxed plasmid (pBR322) in 35 mM Tris-HCl (pH 7.5), 24 mM KCl, 4 mM MgCl2, 2 mM dithithreitol (DTT), 1.8 mM spermidine, 1 mM ATP, 6.5% (wt/vol) glycerol and 0.1 mg/ml bovine serum albumin per reaction.
Of this stock solution, 13.2 µL was aliquoted for each reaction into 1.5 mL Eppendorf tubes and supplemented with 0.3 µL of the appropriate compound dilution or DMSO with a […] DMSO concentration of 2% per reaction. The reactions were started with 1.5 µL of 50 nM (pre-screening) or 40 nM (IC50 determinations) wt E. coli gyrase in dilution buffer (50 mM Tris-HCl (pH 7.5), 100 mM KCl, 2 mM DTT, 1 mM EDTA, and 50% (wt/vol) glycerol) for a […] volume of 15 µL. Reactions were incubated at 37°C for 30 minutes before addition of 1.5 µL 0.2% (wt/vol) SDS and 0.75 µL proteinase K (0.2 mg/mL) and further incubation at 37°C for 30 minutes to trap cleavage complexes. Reactions were stopped with 15 µL chloroform:isoamyl alcohol (24: 1 v/v) and 15 µL of STEB (40% (wt/vol) sucrose, […] Tris-Cl pH 8, 10 mM EDTA, 0.5 mg/mL bromophenol blue). After brief vortexing and centrifugation at 2,300g for 5 min, 15 µL of the aqueous phase was loaded onto 1% (wt/vol) agarose in TAE (Tris-acetate […] and EDTA […]) gels supplemented with 10 µg/mL ethidium bromide.
The gels were run at 85 V for 2 hours.
DNA was visualized (602/50, UV Trans, auto optimal exposure) with a ChemiDoc MP (Bio-Rad Laboratories Inc., equipped with ImageLab Touch Software v2.0.0.27) and the percentage of cleaved DNA relative to the total amount of DNA per lane was determined with ImageJ software.[2] IC50 curves were generated in GraphPad Prism (v10.0.0) using the non-linear regression curve fit variable slope with four parameters and least squares regression.

[4] = Reverse-phase HPLC retention time as estimate of lipophilicity; format: physicochemical; conditions: indicator of lipophilicity
Text: As mentioned before, albicidin 1 is a rather hydrophobic compound and improving its aqueous solubility is desirable. The lipophilicity of drug molecules is commonly characterized by the octanol/water partition coefficient (logP). An alternative approach relies on the correlation between lipophilicity and the retention time (Rt) on a reverse‐phase HPLC column.[31] This approach works well if structurally related compounds are compared as is the case for this SAR study. Rt was thus used to estimate the hydrophilicity of albicidin 1 and its derivatives 2–24 (Table 1).[32]

In the case of `COc1c(NC(=O)c2ccc(NC(=O)c3ccc(NC(=O)[C@H](CC#N)NC(=O)c4ccc(NC(=O)/C(C)=C/c5ccc(O)cc5)cc4)cc3)c(OC)c2O)ccc(C(=O)O)c1O` [compound 1, albicidin], the IC50 (bacterial DNA gyrase) is listed as 40 nM.

Molecule `COc1c(NC(=O)c2ccc(NC(=O)c3ccc(NC(=O)[C@H](Cc4c[nH]nn4)NC(=O)c4ccc(NC(=O)c5ccc(F)cn5)cc4)cn3)c(OC)c2O)ccc(C(=O)O)c1O` [compound 7] has an MIC (Bacillus subtilis DSM 10) of 0.125 µg/mL (≈ 0.147 µM), an MIC (E. coli BW25113) of 0.031 µg/mL (≈ 0.0365 µM) and an MIC (E. coli DSM1116) of 0.031 µg/mL (≈ 0.0365 µM). For the same molecule, the MIC [1] was 0.125 µg/mL (≈ 0.147 µM), the MIC [2] was 2 µg/mL (≈ 2.36 µM) and the MIC [3] was at most 0.016 µg/mL. For the same molecule, the MIC (E. coli) was 4 µg/mL, the “Gyrase inhibition strong+ / weak −” value (E. coli DNA gyrase) was “+” and the “Rt (retention time)” value [4] was 8.29 min.

`COc1c(NC(=O)c2ccc(NC(=O)c3ccc(NC(=O)[C@H](Cc4cn[nH]n4)NC(=O)c4ccc(NC(=O)/C(C)=C/c5ccc(O)cc5)cc4)cn3)c(OC)c2O)ccc(C(=O)O)c1O` [compound 3, reference compound] showed an MIC (Bacillus subtilis DSM 10) of 0.031 µg/mL (≈ 0.035 µM), an MIC (E. coli BW25113) of 0.016 µg/mL (≈ 0.0181 µM) and an MIC (E. coli DSM1116) of 0.016 µg/mL (≈ 0.0181 µM). The MIC [1] was 0.031 µg/mL (≈ 0.035 µM), the MIC [2] was 0.25 µg/mL (≈ 0.282 µM) and the MIC [3] was 0.016 µg/mL (≈ 0.0181 µM). For the same molecule, the MIC (E. coli) was 0.5 µg/mL, the CC50 (E. coli DNA gyrase; E. coli gyrase DNA cleavage, read-out: CC50 (concentration at half-maximum cleavage)) was 66 nM and the “Gyrase inhibition strong+ / weak −” value (E. coli DNA gyrase) was “+”. The “Rt (retention time)” value [4] was 8.15 min.

With `COc1c(NC(=O)c2ccc(NC(=O)c3ccc(NC(=O)[C@H](Cc4c[nH]nn4)NC(=O)c4ccc(NC(=O)c5ccc(C(F)(F)F)cc5)cc4)cn3)c(OC)c2O)ccc(C(=O)O)c1O` [compound 5] the MIC (Bacillus subtilis DSM 10) was 0.125 µg/mL (≈ 0.139 µM), the MIC (E. coli BW25113) was 0.063 µg/mL (≈ 0.0702 µM) and the MIC (E. coli DSM1116) was 0.016 µg/mL (≈ 0.0178 µM). The MIC [1] was 0.5 µg/mL (≈ 0.557 µM), the MIC [2] was 1 µg/mL (≈ 1.11 µM) and the MIC [3] was at most 0.016 µg/mL. The MIC (E. coli) was 4 µg/mL, the “Gyrase inhibition strong+ / weak −” value (E. coli DNA gyrase) was “−” and the “Rt (retention time)” value [4] was 8.99 min.
